Columns and labels:
Assay in all cases: relative viability (nuclei count vs DMSO), 5 days (fraction); higher = more cells survive
Bortezomib + Lapatinib = compound: CC(C)C[C@H](NC(=O)[C@H](Cc1ccccc1)NC(=O)c1cnccn1)B(O)O [Bortezomib] + CS(=O)(=O)CCNCc1ccc(-c2ccc3ncnc(Nc4ccc(OCc5cccc(F)c5)c(Cl)c4)c3c2)o1 [Lapatinib] (partner 2 µM)
Summary of the method: (§1)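 Lung cancer cell lines in 1536-well plates got either a single drug or a fixed anchor-drug dose together with five library-drug doses (not always all listed) in √10 steps, by pin tool, on the day after seeding. Nuclei were counted after 5 days, and relative viability is the treated-to-vehicle ratio of nuclei counts. Values are medians of duplicate plates.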

Obatoclax + Luminespib = compound: COC1=CC(c2cc3ccccc3[nH]2)=N/C1=C\c1[nH]c(C)cc1C [Obatoclax] + CCNC(=O)c1noc(-c2cc(C(C)C)c(O)cc2O)c1-c1ccc(CN2CCOCC2)cc1 [Luminespib] (partner 0.01 µM)
Summary of the method: as §1

Obatoclax + OSI-027 = compound: COC1=CC(c2cc3ccccc3[nH]2)=N/C1=C\c1[nH]c(C)cc1C [Obatoclax] + COc1cccc2cc(-c3nc([C@H]4CC[C@H](C(=O)O)CC4)n4ncnc(N)c34)[nH]c12 [OSI-027] (partner 0.5 µM)
Summary of the method: as §1

[1] = compound: CC1=CC(=NN1)NC2=CC(=NC(=N2)/C=C/C3=CC=CC=C3)N4CCN(CC4)C + CS(=O)(=O)CCNCc1ccc(-c2ccc3ncnc(Nc4ccc(OCc5cccc(F)c5)c(Cl)c4)c3c2)o1 [Lapatinib] (partner 2 µM)
Summary of the method: as §1

| Cell Line | relative viability (Bortezomib + Lapatinib; first compound 0.0002 µM) | relative viability (Bortezomib + Lapatinib; first compound 0.000632 µM) | relative viability (Bortezomib + Lapatinib; first compound 0.002 µM) | relative viability (Bortezomib + Lapatinib; first compound 0.006325 µM) | relative viability (Bortezomib + Lapatinib; first compound 0.02 µM) | relative viability (Obatoclax + Luminespib; first compound 0.01 µM) | relative viability (Obatoclax + Luminespib; first compound 0.03162 µM) | relative viability (Obatoclax + Luminespib; first compound 0.1 µM) | relative viability (Obatoclax + Luminespib; first compound 0.3162 µM) | relative viability (Obatoclax + Luminespib; first compound 1 µM) | relative viability (Obatoclax + OSI-027; first compound 0.01 µM) | relative viability (Obatoclax + OSI-027; first compound 0.03162 µM) | relative viability (Obatoclax + OSI-027; first compound 0.1 µM) | relative viability (Obatoclax + OSI-027; first compound 0.3162 µM) | relative viability (Obatoclax + OSI-027; first compound 1 µM) | relative viability ([1]; first compound 0.08 µM) | relative viability ([1]; first compound 0.253 µM) | relative viability ([1]; first compound 0.8 µM) | relative viability ([1]; first compound 2.53 µM) | relative viability ([1]; first compound 8 µM) |
| --- | --- | --- | --- | --- | --- | --- | --- | --- | --- | --- | --- | --- | --- | --- | --- | --- | --- | --- | --- | --- |
| NCI-H1666 | 0.611 | 0.883 | 0.841 | 0.194 | 0.187 | 1.05 | 1.06 | 1.03 | 0.509 | 0.378 | 0.881 | 0.89 | 0.95 | 0.443 | 0.5 | 0.738 | 0.549 | 0.669 | 0.416 | 0.131 |
| NCI-H1734 | 0.977 | 0.99 | 1.32 | 0.21 | 0.112 | 0.201 | 0.188 | 0.2 | 0.187 | 0.18 | 0.648 | 0.612 | 0.569 | 0.465 | 0.254 | 0.968 | 1.06 | 0.958 | 0.577 | 0.145 |
| NCI-H1755 | 0.991 | 0.853 | 1.04 | 0.48 | 0.155 | 0.416 | 0.418 | 0.388 | 0.714 | 0.713 | 0.768 | 0.709 | 0.667 | 0.742 | 0.763 | 1.06 | 1.12 | 1.01 | 0.535 | 0.143 |
| NCI-H1792 | 0.797 | 0.862 | 0.967 | 0.929 | 0.797 | 0.419 | 0.474 | – | 0.376 | 0.394 | 0.793 | 0.716 | – | 0.624 | 0.932 | 0.862 | 0.861 | 0.892 | 0.841 | 0.145 |
| NCI-H1793 | 0.683 | 0.624 | 0.868 | 0.466 | 0.154 | 0.119 | 0.128 | 0.187 | 0.183 | 0.192 | 0.293 | 0.286 | 0.248 | 0.275 | 0.298 | 0.528 | 0.566 | 0.656 | 0.1 | 0.0979 |
| NCI-H1915 | 0.94 | 0.944 | 0.932 | 0.973 | 0.0577 | 0.725 | 0.664 | 0.749 | 0.713 | 0.796 | 0.613 | 0.585 | 0.584 | 0.604 | 0.546 | 0.972 | 1.01 | 0.954 | 0.453 | 0.514 |
| NCI-H1944 | 0.883 | 0.774 | 0.929 | 0.809 | 0.328 | 0.794 | 0.66 | 0.735 | 0.75 | 0.636 | 0.457 | 0.383 | 0.381 | 0.415 | 0.448 | 0.837 | 0.931 | 0.865 | 0.655 | 0.29 |
| NCI-H1975 | 0.893 | 0.839 | 0.18 | 0.105 | 0.14 | 0.316 | 0.196 | – | 0.472 | 0.306 | 0.801 | 0.665 | – | 0.511 | 0.177 | 0.933 | 0.923 | 0.894 | 0.203 | 0.149 |
| NCI-H1993 | 0.69 | 0.77 | 0.935 | 0.51 | 0.497 | 0.868 | 0.869 | 0.845 | 0.615 | 0.863 | 0.501 | 0.551 | 0.623 | 0.526 | 0.528 | 0.76 | – | 0.772 | 0.605 | 0.561 |
| NCI-H2009 | 0.583 | 0.812 | 0.968 | 0.0615 | 0.0663 | 0.928 | 0.981 | 0.993 | 0.713 | 0.246 | 0.582 | 0.608 | 0.535 | 0.229 | 0.247 | 0.907 | 0.628 | 1.03 | 0.451 | 0.189 |
| NCI-H2023 | 0.521 | 0.822 | 0.773 | 0.144 | 0.0649 | 0.57 | 0.799 | 0.556 | 0.257 | 0.107 | 0.42 | 0.381 | 0.488 | 0.226 | 0.102 | 0.849 | 0.92 | 0.765 | 0.0727 | 0.0496 |
| NCI-H2085 | 0.725 | 0.759 | 0.727 | 0.382 | 0.231 | 0.389 | 0.432 | 0.44 | 0.283 | 0.347 | 0.818 | 0.917 | 0.587 | 0.506 | 0.359 | 0.633 | 0.804 | 0.841 | 0.452 | 0.309 |
| NCI-H2087 | 0.897 | 0.951 | 0.541 | 0.114 | 0.0853 | 0.164 | 0.166 | 0.161 | 0.121 | 0.121 | 0.768 | 0.525 | 0.529 | 0.333 | 0.159 | 1.01 | 1.02 | 1.03 | 0.582 | 0.188 |
| NCI-H2126 | 0.762 | 0.757 | 0.762 | 0.727 | 0.595 | 0.857 | 0.876 | 0.875 | 0.806 | 0.679 | 0.766 | 0.546 | 0.878 | 0.651 | 0.736 | 0.729 | 0.813 | 0.713 | 0.629 | 0.464 |
| NCI-H2170 | 0.253 | 0.266 | 0.306 | 0.266 | 0.2 | 0.624 | 0.592 | 0.761 | 0.588 | 0.652 | 0.684 | 0.73 | 0.647 | 0.769 | 0.754 | 0.277 | 0.255 | 0.244 | 0.199 | 0.166 |
| NCI-H2228 | 0.986 | 0.816 | 0.438 | 0.115 | 0.119 | 0.164 | 0.109 | 0.138 | 0.113 | 0.186 | 0.653 | 0.507 | 0.524 | 0.318 | 0.152 | 1.16 | 0.85 | 0.685 | 0.103 | 0.0435 |
| NCI-H2347 | 0.922 | 1.05 | 0.942 | 0.849 | 0.37 | 0.595 | 0.374 | – | 0.269 | 0.23 | 0.461 | 0.408 | – | 0.467 | 0.412 | 0.908 | 0.95 | 1.04 | 0.938 | 0.99 |
| NCI-H2405 | 0.817 | – | 1.01 | 0.112 | 0.121 | 0.606 | 0.67 | – | 0.782 | 0.735 | 0.65 | 0.688 | – | 0.643 | 0.727 | 1.09 | 0.87 | 1.22 | 0.696 | 0.133 |
| NCI-H3122 | 0.943 | 1.01 | 1.01 | 0.902 | 0.202 | 0.0984 | 0.0854 | 0.0999 | 0.0772 | 0.0894 | 0.931 | 0.976 | 1.02 | 0.859 | 0.2 | 0.971 | 0.859 | 1.03 | 0.925 | 0.897 |
| PC-3 [JPC-3] | 0.469 | 0.453 | 0.49 | 0.364 | 0.16 | 0.652 | 0.606 | 0.742 | 0.683 | 0.745 | 0.808 | 0.728 | 0.791 | 0.731 | 0.752 | 0.445 | 0.46 | 0.466 | 0.408 | 0.368 |
| PC-14 | 0.323 | 0.356 | 0.354 | 0.239 | 0.0862 | 0.132 | 0.138 | 0.148 | 0.13 | 0.146 | 0.729 | 0.834 | 0.67 | 0.519 | 0.0675 | 0.334 | 0.374 | 0.278 | 0.248 | 0.0886 |
| RERF-LC-KJ | 0.82 | 0.91 | 0.846 | 0.653 | 0.242 | 1.07 | 1.32 | 1.04 | 0.583 | 0.554 | 0.578 | 0.554 | 0.553 | 0.475 | 0.268 | 0.878 | 0.875 | 0.839 | 0.716 | 0.292 |
| SK-LU-1 | 0.781 | 0.894 | 0.497 | 0.13 | 0.146 | 0.195 | 0.205 | 0.173 | 0.173 | 0.11 | 0.366 | 0.315 | 0.273 | 0.205 | 0.166 | 0.861 | 0.959 | 0.699 | 0.386 | 0.116 |
| SK-MES-1 | 0.487 | 0.45 | 0.506 | 0.423 | 0.214 | 0.737 | 0.837 | 0.677 | 0.298 | 0.252 | 0.607 | 0.611 | 0.529 | 0.456 | 0.179 | 0.44 | 0.52 | 0.453 | 0.329 | 0.146 |
| SW 1573 | 1.03 | 1.09 | 1.14 | 0.308 | 0.0835 | 0.26 | 0.442 | 0.206 | 0.188 | 0.164 | 0.612 | 0.559 | 0.662 | 0.219 | 0.115 | 1.08 | 1.34 | 1.11 | 0.906 | 0.134 |
| UMC-11 | 0.813 | 0.846 | 0.837 | 0.375 | 0.149 | 0.993 | 0.968 | 1.05 | 1.07 | 0.428 | 0.465 | 0.504 | 0.48 | 0.379 | 0.285 | 0.9 | 0.758 | 0.63 | 0.152 | 0.128 |
